Reference: patent publication US20220110862A1, “TREATMENT OF COGNITIVE DYSFUNCTION WITH PYRROLOPYRIDINE-ANILINE COMPOUNDS” (NFlection Therapeutics, Inc., priority 2020, published 2022)
Values joined by “and” are separate entries in the source; they are usually repeats but may differ in a detail not shown here. Equal entries are not always repeated. Where two headings read alike, the source gives them in different places.

Assays:
[1] = Brain concentration and brain:plasma ratio of Compound 1.003 after single intranasal administration of nasal formulation Ex. A (LC-MS/MS); assay type: in vivo, Mouse; conditions: female athymic mice, single intranasal 50 μL Ex. A; for Brain concentration, animal replicates: individual animals; for Brain concentration, Mean: mean of 3
Experimental: (§1) This study was conducted to investigate the potential for Compound 1.003 to penetrate into the brain following a single intranasal administration of a nasal formulation including the compound. Compound 1.003 was formulated at a dose strength of 2.3% according to Ex. A of Example 1.
(§2) A single group of female athymic mice each received a single intranasal administration of Compound 1.003. At intervals post dose the animals were sacrificed and samples of blood and brain were collected. The concentration of Compound 1.003 was determined in plasma and brain; and samples of brain were used for determination of the expression of phosphor-ERK (p-ERK).
(§3) The study was conducted using the following animals: • Species: Mouse; • Strain: NCr mu/mu athymic nude mice from Charles River; • Sex: Female; • Age: 7 weeks old at the time of dosing; • Body weight: 20.1 to 27.0 g; and • Number used: 12
(§4) Overview: A single group of 12 athymic female mice each received a single intranasal administration of Compound 1.003 (Ex. A nasal formulation of Example 1). Three animals were sacrificed at each a 4 times post dose and sample of plasma and brain collected at necropsy. The concentration of Compound 1.003 was determined in plasma and brain by liquid chromatography with tandem mass spectrometry (LC-MS/MS) and the expression of p-ERK was determined in brain samples.
(§5) Dosing: Each animal received a single administration (50 μL) of the nasal formulation Ex. A including Compound 1.003. The dose was administration intranasally to each animal.
(§6) (dry ice). The samples were send out for the LC-MS/MS analysis of plasma concentration of Compound 1.003. • Brain Collection: Brain (divide into 2 parts at the mid sagittal plane); Part 1: preservation—snap frozen, ship at −80° C. (dry ice) for the LC-MS/MS analysis of Compound 1.003; and Part 2: preservation—fixed in 10% neutral buffered formalin for at least 24 h. Samples were then transferred after 24 h into 1.5 mL Eppendorf tubes containing 70% EtOH and stored ambient until shipment for the expression of p-ERK.
(§7) Bioanalytical Methods: Bioanalysis of […] plasma and brain samples for Compound 1.003 was performed using the LC-MS/MS analysis. For this study, the analysis was conducted using existing fit for purpose bioanalytical methods. Plasma samples were analyzed undiluted against a plasma standard curve (10 standards between 0.5 to 5000 ng/mL). Prior to analysis for concentration of compound 1.003, the brain samples were weighed, mixed with 5 volumes of water and then homogenised. Homogenised samples were then diluted 2× into plasma and then analysed against the plasma standard curve ([…]). All results were then corrected for the dilution factor.

[2] = Plasma concentration of Compound 1.003 after single intranasal administration of nasal formulation Ex. A (LC-MS/MS); assay type: in vivo, Mouse; conditions: female athymic mice
Experimental: as §1, §2, §3, §4, §5, §6, §7

Compound: Cn1c(Nc2ccc(I)cc2F)c(C(=O)NOCCO)c2cccnc21 [Compound 1.003, 2-((2-fluoro-4-iodophenyl)amino)-N-(2-hydroxyethoxy)-1-methyl-1H-pyrrolo[2,3-b]pyridine-3-carboxamide]
- Brain:plasma concentration ratio, individual animal ([1]; 0.250 h post dose, animals 1-3): 0.30 and 0.49
- Brain concentration, animal replicates ([1]; 0.250 h post dose): 405 and 375 and 280
- Brain concentration, Mean ([1]; 0.250 h post dose): 353 ng/g
- Brain:plasma concentration ratio, individual animal ([1]; 0.500 h post dose, animals 4-6): 0.51 and 0.47
- Brain concentration, animal replicates ([1]; 0.500 h post dose): 297 and 513 and 383
- Brain concentration, Mean ([1]; 0.500 h post dose): 398 ng/g
- Brain:plasma concentration ratio, individual animal ([1]; 1.00 h post dose, animals 7-9): 1.45 and 2.49 and 1.15
- Brain concentration, animal replicates ([1]; 1.00 h post dose): 188 and 205 and 144
- Brain concentration, Mean ([1]; 1.00 h post dose): 179 ng/g
- Brain:plasma concentration ratio, Mean ([1]; 4.00 h post dose): 1.72
- Brain:plasma concentration ratio, individual animal ([1]; 4.00 h post dose, animals 10-12): 3.65 and 0.89 and 0.63
- Brain concentration, animal replicates ([1]; 4.00 h post dose): 166 and 46.5 and 51.9
- Brain concentration, Mean ([1]; 4.00 h post dose): 88.1 ng/g
- Kp at 0.25 h ([1]; female, NCr mu/mu athymic nude, mouse, brain, inhaled or intranasal, 50 μL, 0.250 h (15 min) post dose, read-out: Brain:plasma concentration ratio, Mean): 0.38
- Kp at 0.25 h ([1]; female, NCr mu/mu athymic nude, mouse, brain, inhaled or intranasal, 50 μL, 0.250 h post dose, animals 1-3, read-out: Brain:plasma concentration ratio, individual animal): 0.34
- Kp at 0.5 h ([1]; female, NCr mu/mu athymic nude, mouse, brain, inhaled or intranasal, 50 μL, 0.500 h post dose, animals 4-6, read-out: Brain:plasma concentration ratio, individual animal): 0.39
- Kp at 0.5 h ([1]; female, NCr mu/mu athymic nude, mouse, brain, inhaled or intranasal, 50 μL, 0.500 h post dose, read-out: Brain:plasma concentration ratio, Mean): 0.46
- Kp at 1 h ([1]; female, NCr mu/mu athymic nude, mouse, brain, inhaled or intranasal, 50 μL, 1.00 h post dose): 1.7
- Kp at 4 h ([1]; female, NCr mu/mu athymic nude, mouse, brain, inhaled or intranasal, 50 μL, 4.00 h post dose): 1.7
- Cmax ([2]; NCr mu/mu athymic nude, mouse, plasma, inhaled or intranasal, single intranasal 50 μL Ex. A, read-out: maximum plasma concentration (Cmax)): 996 ng/mL
- Plasma concentration, animal replicates ([2]; single intranasal 50 μL Ex. A, 0.5 h post dose, individual animals): 1000 ng/mL and 823 ng/mL
- Plasma concentration, animal replicates ([2]; single intranasal 50 μL Ex. A, 1.0 h post dose, individual animals): 82.4 ng/mL and 125 ng/mL
- Plasma concentration, animal replicates ([2]; single intranasal 50 μL Ex. A, 4.0 h post dose, individual animals): 52.4 ng/mL and 82.4 ng/mL
- Plasma concentration, animal replicates ([2]; single intranasal 50 μL of nasal formulation Ex. A (2.3%), 0.25 h post dose, individual animals): 1190 ng/mL and 1230 ng/mL and 568 ng/mL
- concentration at 0.5 h ([2]; female, NCr mu/mu athymic nude, mouse, plasma, other: intranasal, 50 μL, single intranasal 50 μL Ex. A, 0.5 h post dose, individual animals, read-out: Plasma concentration, animal replicates): 757 ng/mL
- concentration at 0.5 h ([2]; female, NCr mu/mu athymic nude, mouse, plasma, other: intranasal, 50 μL, single intranasal 50 μL Ex. A, 0.5 h post dose, mean of 3, read-out: Plasma concentration, Mean): 860 ng/mL
- concentration at 1 h ([2]; female, NCr mu/mu athymic nude, mouse, plasma, other: intranasal, 50 μL, single intranasal 50 μL Ex. A, 1.0 h post dose, individual animals, read-out: Plasma concentration, animal replicates): 130 ng/mL
- concentration at 1 h ([2]; female, NCr mu/mu athymic nude, mouse, plasma, other: intranasal, 50 μL, single intranasal 50 μL Ex. A, 1.0 h post dose, mean of 3, read-out: Plasma concentration, Mean): 112 ng/mL
- concentration at 4 h ([2]; female, NCr mu/mu athymic nude, mouse, plasma, other: intranasal, 50 μL, single intranasal 50 μL Ex. A, 4.0 h post dose, individual animals, read-out: Plasma concentration, animal replicates): 45.5 ng/mL
- concentration at 4 h ([2]; female, NCr mu/mu athymic nude, mouse, plasma, other: intranasal, 50 μL, single intranasal 50 μL Ex. A, 4.0 h post dose, mean of 3, read-out: Plasma concentration, Mean): 60.1 ng/mL
- concentration at 0.25 h ([2]; female, NCr mu/mu athymic nude, mouse, plasma, other: intranasal, 50 μL, single intranasal 50 μL of nasal formulation Ex. A (2.3%), 0.25 h post dose, mean of 3): 996 ng/mL
